Assay results from patent US10576077B2, “Pharmaceutical salt forms of Cepharanthine and Tetrandrine” (Southwest Research Institute, priority 2015, dated 2020).
Structures can show the parent of a compound that is named as a salt.

Experiments:
[1] = assay type: physicochemical
Experimental: A small amount of the sample (0.6 ml) was removed from each vial and centrifuged to collect 0.3 ml clear supernatant.
The sample was filtered through a 0.45 μm PTFE syringe filter and the filtrate sent for HPLC analysis (Table 10).

[2] = Solubility of Cepharanthine salts in water; assay type: physicochemical
rat test animals = test: Oral dosing of concentrated CEPN.2HCl water solutions in rats; assay type: in vivo; conditions: ENG sample, concentrated water solution

Compound	Sample solubility [1] [mg/mL]	also measured
COc1ccc2cc1Oc1ccc(cc1)C[C@H]1c3c(cc4c(c3Oc3cc5c(cc3OC)CCN(C)[C@@H]5C2)OCO4)CCN1C [HBr salt, Cepharanthine bis-hydrobromide]		solubility ([2]; read-out: Final Concentration (solubility in water)): 17.1 mg/mL
Cepharanthine.2HCl [CEPN.2HCl]		Final Concentration (solubility in water) [2]: 51.6 mg/mL; Effect of oral dosing of concentrated water solutions (rat test animals): gelation in the stomach of the rat test animals and resultant toxic effects
CEPN.2HCl [16-0203-012-119-35]	33.9	
Cepharanthine bis-pyruvate [Pyruvic acid salt]		Final Concentration (solubility in water) [2]: 488 mg/mL

Second part, led by results:

Sample solubility [1] [mg/mL]	Compound	also measured
39.7	CEPN.2HCl [16-0203-012-098-27]	
38.7	CEPN.2HCl [16-0203-012-098-10]	
36.5	CEPN.2HCl [16-0203-012-105-23]	
31.9	CEPN.2HCl [16-0203-012-097-27]	
